Measurements taken from patent US12441679B2, “Acrylamide-substituted indane compounds and therapeutic use thereof” (Sanofi, priority 2020, dated 2025).

These compounds were tested on YAP1-TEAD and TAZ-TEAD activity (TEAD responsive promoter element) (assay: TEAD-Luciferase Reporter Assay (8XGTIIC-Luciferase construct stably integrated in tumor cell lines)). Conditions: 8XGTIIC-Luciferase reporter in tumor cell lines, 48 hrs compound treatment, 10 doses 1-10000 nM.
Format: cell-based, human
Text: TEAD-Luciferase Reporter Assay
Luciferase-based gene reporter assays were used, employing the TEAD responsive promoter element that are stably integrated to different human tumor cell lines in order to monitor YAP1-TEAD and TAZ-TEAD activity and to study YAP1/TAZ-TEAD activity modulation by small molecule compounds. Luciferase-based gene reporter assays employing the GAPDH promoter element and stably integrated to different human tumor cell lines are used as counter screen control cell lines.
Tumor cell lines with stable integration of the 8XGTIIC-Luciferase construct (Dupont et al., Nature 2011) or the GAPDH-Luciferase control plasmid, are seeded in culture medium in 96-well plates at a density of 8000 cells/well. Following an overnight incubation in a 37° C., 5% CO2 growth chamber, cells are treated with compounds described above at 10 doses ranging between 1 and 10000 nM for 48 hrs. After compound incubation, cells are lysed with Bright-Glo Luciferase Assay System (Promega E2620) and luciferase activity is measured using a luminescent plate reader.
The inhibitory activity of the compounds with respect to luciferase activity is given by the concentration which inhibits 50% of activity of non-treated cells. IC50s are determined with a nonlinear regression model on XLfit software analysis (IDBS, UK).

Compound	IC50
(R)—N-(1-((3-(trifluoromethyl)phenyl)amino)-2,3-dihydro-1H-inden-5-yl)acrylamide [Example 2]	38 nM
(S)—N-(1-((3-(trifluoromethyl)phenyl)amino)-2,3-dihydro-1H-inden-5-yl)acrylamide [Example 3]	109 nM
(S)—N-(1-((4-fluorophenyl)amino)-2,3-dihydro-1H-inden-5-yl)acrylamide [Example 6]	31 nM

Same assay, conditions: Homo sapiens; 8XGTIIC-Luciferase reporter in tumor cell lines, 48 hrs compound treatment, 10 doses 1-10000 nM

Compound	IC50
C=CC(=O)N(C)c1ccc2c(c1)CCC2Oc1cccc(C(F)(F)F)c1 (centres unmarked) [Example 89, N-methyl-N-(1-(3-(trifluoromethyl)phenoxy)-2,3-dihydro-1H-inden-5-yl)acrylamide]	1060 nM
C=CC(=O)Nc1ccc2c(c1)C(Nc1ccc(C(F)(F)F)cc1)C(F)C2 (centres unmarked) [Example 90, N-[2-fluoro-3-[4-(trifluoromethyl)anilino]-2,3-dihydro-1H-inden-5-yl]acrylamide]	84 nM
C=CC(=O)Nc1ccc2c(c1)C(Nc1cccc(C(F)(F)F)c1)C(F)C2 (centres unmarked) [Example 91, N-(2-fluoro-3-((3-(trifluoromethyl)phenyl)amino)-2,3-dihydro-1H-inden-5-yl)acrylamide]	209 nM
C=CC(=O)Nc1ccc2c(c1)C(Oc1ccc(C(F)(F)F)cc1)C(F)C2 (centres unmarked) [Example 92, N-[2-fluoro-3-[4-(trifluoromethyl)phenoxy]-2,3-dihydro-1H-inden-5-yl]acrylamide]	95 nM
C=CC(=O)N(C)c1ccc2c(c1)CC(C)C2Nc1cccc(C(F)(F)F)c1 (centres unmarked) [Example 93, N-methyl-N-(2-methyl-1-((3-(trifluoromethyl)phenyl)amino)-2,3-dihydro-1H-inden-5-yl)acrylamide]	513 nM
